Measurements from US20130090320A1, “METHOD OF TREATING PROSTATE CANCER” (NIIKI PHARMA INC., priority 2010, published 2013).

What was measured:
PC-3 cell line = conditions: Domingo-Domenech et al., Clin. Cancer Res. 2006; cited from earlier work
LNCaP cell line [1] = conditions: Domingo-Domenech et al., Clin. Cancer Res. 2006; cited from earlier work
LNCaP cell line [2] = assay: Docetaxel IC50 in LNCaP from published literature; assay type: cell-based, human; conditions: ratio of literature docetaxel IC50 in LNCaP to IC50 in PC-3
Protocol: In addition, the IC50 values of docetaxel in the LNCaP and PC-3 cell lines were obtained from published literature. The ratios of IC50 values of sodium trans-[tetrachlorobis(1H-indazole)ruthenate(III)] in a cell line sensitive to one of the other drugs and a cell line insensitive to the same drug were calculated. The results are shown in Table 1 below (“Test Drug” in the table denotes sodium trans-[tetrachlorobis(1H-indazole)ruthenate(III)]). […] See Domingo-Domenech et al., Clin. Cancer Res., 12(18):5578-5586 (2006); Blagosklonny et al., J. Urol. 163(3):1022-6 (2000). As such, sodium trans-[tetrachlorobis(1H-indazole)ruthenate(III)] is potentially effective in treating prostate cancer resistant to such other drugs.

[3] = test system: PC-3 (Prostate carcinoma); conditions: PC-3 cell line, MTT, 72 hours post-treatment
Protocol: (§1) To test the activities of sodium trans-[tetrachlorobis(1H-indazole)ruthenate(III)], ATCC's MTT Cell Proliferation Assay® was performed using human prostate cancer cell lines LNCaP clone FGC (prostate carcinoma) and PC-3 (Prostate carcinoma). Stock cultures were allowed to grow to 70-80% confluence for this study. The anti-proliferative activity of sodium trans-[tetrachlorobis(1H-indazole)[…]], against the indicated cell lines was evaluated in vitro using the ATCC's MTT Cell Proliferation Assay (Catalog No. 30-1010K). LNCaP clone FGC plates were seeded with 4,000 cells/well, and the cells were grown in RPMI 1640 medium containing 1% HEPES (1M solution), 1% sodium pyruvate, 1% glucose (45% solution), 10% heat-inactivated FBS and 1% penicillin/strep/glutamine. PC-3 plates were seeded with 6,000 cells/well, and the cells were grown in Ham's F12 medium containing 10% heat-inactivated FBS, and 1% penicillin/strep/glutamine. Cultures were maintained in a 37° C. humidified 5% CO2/95% air atmosphere. The cells were treated with sodium trans-[tetrachlorobis(1H-indazole)ruthenate(III)] at 1,000 μM, or a series of 4× dilutions thereof (250 μM, 62.5 μM, etc.). 100 μl of medium was removed from each well at 72 hours post-treatment and 10 μl MTT reagent was added to each well. […] The plates were left overnight at room temperature in the dark and was read on a plate reader using SoftMax® Pro (version 5.2, Molecular Devices).
(§2) The absorbance data was analyzed as follows: Absorbance values were converted to Percent of Control and plotted against test agent concentrations for IC50 calculations using SoftMax® Pro (version 5.2, Molecular Devices). […] Percent of Control values were calculated by dividing the absorbance values for each test well by the No Drug Control average (column 11 values; cells+vehicle control) and multiplying by 100. Plots of Compound Concentration versus Percent of Control were analyzed using the 4-parameter equation to obtain IC50 values and other parameters that describe the sigmoidal dose response curve. […]

[4] = test system: LNCaP clone FGC (prostate carcinoma)
Protocol: as §1, §2

Compound | IC50 (PC-3 cell line) [µM] | IC50 (LNCaP cell line [1]) [µM] | IC50 Ratio (LNCaP/PC-3) (LNCaP cell line [2]) | IC50 [3] [µM] | IC50 ([4]; LNCaP cell line, MTT, 72 hours post-treatment) [µM] | IC50 Ratio (LNCaP/PC-3) ([4]; ratio of Test Drug IC50 in LNCaP to IC50 in PC-3)
CC(=O)O[C@@]12CO[C@@H]1C[C@H](O)[C@@]1(C)C(=O)[C@H](O)C3=C(C)[C@@H](OC(=O)[C@H](O)[C@@H](NC(=O)OC(C)(C)C)c4ccccc4)C[C@@](O)([C@@H](OC(=O)c4ccccc4)[C@H]21)C3(C)C [Docetaxel, docetaxel] | 0.0025 to 0.005 | 0.05 to 0.06 | 12-20 | – | – | –
[Cl][Ru-]([Cl])([Cl])[Cl].[Na+].c1ccc2[nH]ncc2c1.c1ccc2[nH]ncc2c1 [sodium trans-[tetrachlorobis(1H-indazole)ruthenate(III)]] | – | – | – | 41.8 | 17.3 | 0.41
